Measured values published in patent US20170173106A1, “Polypeptide Fragments of 168A-T2 and Compositions Comprising Them for Use in Treating Cancer” (GENE SIGNAL INTERNATIONAL SA, priority 2014, published 2017).

Tests used:
[1] = system: HUVECs; test: Capillaries formation by HUVECs on Matrigel; format: cell-based, human; details: 6.5 μM, 13 μM and 33 μM, 18 h
Protocol: Evaluating the formation of capillaries on Matrigel® was performed by angiogenesis test in vitro described in Grant et al (1989 Cell 58, 933-943). Matrigel® was dropped down the wells of the 96 well plates and maintained for 30 min at 37° C. for the Matrigel® solidification. HUVECs cells were then seeded and 50 μL, of peptide added.
Plates were then incubated for 18 hrs at 37° C. cells were then washed with calcein solution (50 μL/well at 8 μM) and incubated for 20 min. HUVECs alive metabolize calcein in a green fluorescent component.
Peptides were added to the culture medium (EGM2-MV) at concentrations 6.5 μM, 13 μM and 33 μM after inoculation of cells. Plates were incubated at 37° C. for 18 h. Fluorescence labeling was achieved by addition of calcein. Pictures were shot with a fluorescence microscope equipped with a camera (zoom ×40).

[2] = system: HUVECs; test: Migration test following the wound test; format: cell-based, human; details: 66 μM (FIG. 3); 20 hrs
Protocol: The migration of the cells was evaluated according to the wound test (Sato and Rifkin 1988 J Cell Biol 107, 1199-1205). HUVECs were cultivated to confluence in an EGM2-MV media. The wound width was measured using the software “Analysis” (Soft Imaging System Gmbh Digital, Olympus). Peptides to be tested were then added to the media.
A wound has been performed with a chisel tip on the cell layer. The HUVECs migration following the addition of peptides was evaluated by the wound assay and the progress of the migration front of the HUVECs was analyzed after 20 hrs of culture. […] Pictures were shot with a microscope equipped with a camera (zoom ×40).

[3] = biological target: T1, CD9-CD9P-1 complex (Homo sapiens, UniProt P21926+Q9P2B2); test: Immunoprecipitation in HUVECs: CD9P-1 with CD9; format: cell-based; details: 33 μM; 2 hrs
T1 construct: endogenous in cells; host or cells: HUVEC
T1 sequence (Q9P2B2 26-879): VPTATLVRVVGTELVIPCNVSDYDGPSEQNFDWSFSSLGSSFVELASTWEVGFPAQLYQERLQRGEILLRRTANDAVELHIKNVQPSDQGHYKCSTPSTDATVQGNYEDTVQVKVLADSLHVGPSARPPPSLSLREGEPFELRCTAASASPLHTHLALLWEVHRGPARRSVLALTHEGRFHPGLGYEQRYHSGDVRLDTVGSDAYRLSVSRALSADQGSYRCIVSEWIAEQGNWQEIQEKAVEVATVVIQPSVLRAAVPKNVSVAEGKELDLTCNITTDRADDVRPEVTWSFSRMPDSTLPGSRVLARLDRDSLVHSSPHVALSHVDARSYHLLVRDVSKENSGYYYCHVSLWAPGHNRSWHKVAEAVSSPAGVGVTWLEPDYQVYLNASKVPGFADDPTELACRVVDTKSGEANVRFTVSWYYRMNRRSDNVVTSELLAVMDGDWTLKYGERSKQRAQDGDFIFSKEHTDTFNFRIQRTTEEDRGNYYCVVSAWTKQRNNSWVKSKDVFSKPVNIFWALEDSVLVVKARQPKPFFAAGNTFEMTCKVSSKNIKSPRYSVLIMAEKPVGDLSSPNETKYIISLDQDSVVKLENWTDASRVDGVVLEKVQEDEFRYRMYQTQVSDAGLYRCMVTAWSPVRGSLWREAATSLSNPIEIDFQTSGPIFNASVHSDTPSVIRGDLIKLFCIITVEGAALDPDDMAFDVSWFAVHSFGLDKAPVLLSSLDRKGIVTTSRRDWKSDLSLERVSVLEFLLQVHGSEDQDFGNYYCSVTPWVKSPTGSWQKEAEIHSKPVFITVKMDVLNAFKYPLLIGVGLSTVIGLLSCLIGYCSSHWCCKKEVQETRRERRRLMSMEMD
T1 sequence (P21926 2-228 limits assumed): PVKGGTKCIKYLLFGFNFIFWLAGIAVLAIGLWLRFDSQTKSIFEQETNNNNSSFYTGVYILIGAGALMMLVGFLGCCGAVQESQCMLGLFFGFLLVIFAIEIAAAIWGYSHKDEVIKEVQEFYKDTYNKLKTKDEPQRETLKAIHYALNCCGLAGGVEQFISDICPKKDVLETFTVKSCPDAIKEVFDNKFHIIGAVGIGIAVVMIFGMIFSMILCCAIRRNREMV
Protocol: (§1) FIG. 13 is a photograph representing the dissociation of CD9-CD9P-1, CD9P-1-CD151 and CD9-CD151 complexes by P3 in HUVECs. HUVECs incubated for 2 h with 33 μM P3, PCT or solvent in EGM2-MV medium were lysed in brij 97 buffer, then CD81, CD9 or CD151 were immunoprecipitated with the corresponding antibody. Line A: Western blot results obtained with anti-CD9P-1 antibody from immunoprecipitated CD81, CD9 and CD151. Line B: Western blot results obtained with anti-CD9 antibody from immunoprecipitated CD81, CD9 and CD151. Line C: Western blot results obtained with anti-CD151 antibody from immunoprecipitated CD81, CD9 and CD151. PCT: control peptide. IP: immunoprecipitation.
(§2) To study more precisely the effect of P3 on the associations of tetraspanins CD9, CD81, and CD151 between them and with CD9P-1, immunoprecipitation (IP) experiments were performed. In the control experiment (with the solvent), CD9P-1 co-precipitated with CD9 and CD81. A weak co-precipitation was observed between […] and CD151. The associations between tetraspanins and CD9P-1 are not modified under PCT condition. However, the interactions between CD9P-1 and CD9 and between CD9P-1 and CD151 are decreased while the HUVECs are incubated for 2 hrs with 33 μM of P3. The association between CD9P-1 and CD81 is not modified by P3 (FIG. 13A).

[4] = biological target: T2, CD9P-1 and CD81 association (Homo sapiens, UniProt P60033+Q9P2B2); test: Immunoprecipitation in HUVECs: CD9P-1 with CD81; format: cell-based; details: 33 μM; 2 hrs
T2 construct: endogenous in cells; host or cells: HUVEC
T2 sequence (Q9P2B2 26-879): T1 sequence (Q9P2B2 26-879)
T2 sequence (P60033 1-236): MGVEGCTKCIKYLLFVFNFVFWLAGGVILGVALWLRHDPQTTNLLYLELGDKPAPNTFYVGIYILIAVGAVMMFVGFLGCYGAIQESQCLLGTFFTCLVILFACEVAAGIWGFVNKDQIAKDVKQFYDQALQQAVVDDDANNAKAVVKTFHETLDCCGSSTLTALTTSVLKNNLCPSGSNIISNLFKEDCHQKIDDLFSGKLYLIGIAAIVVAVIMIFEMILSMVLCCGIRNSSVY
Protocol: as §1, §2

- interaction between CD9P-1 and CD9 [3]: not modified
- association between CD9P-1 and CD81 [4]: not modified
Sequence: NQKGCYDLVT (control peptide) [PCT]
- capillary tubes formation (capillaries length and junctions number) [1]: no effect
- wound closure / HUVECs migration [2]: completely closed
